The source of these data is publication PMC8217170, “Phase Ib dose-escalation study of the hypoxia-modifier Myo-inositol trispyrophosphate in patients with hepatopancreatobiliary tumors” (Nature Communications, 2021).

The test system of one data set is ERG. Briefly: Immunohistochemistry of tumor tissue before vs after ITPP, one patient. It is filed as in vivo, human. On the procedure:
(§1) Samples were collected in 4% buffered formaldehyde, dehydrated, embedded in paraffin and cut into 5 µm sections and stained after antigen retrieval. Hematoxylin/eosin and Masson’s trichrome stains were performed according to standard protocols. The following antibodies were used for immunohistochemical staining: pan-B cytokeratin (CkpanB, Dako, M3515, dilution 1/50), HIF1α (Abcam, ab16066, dilution 1/400), HIF2α (Abcam, ab199, dilution 1/50), carbonic anhydrase 9 (CA9, Abcam, ab15086, dilution 1/3000), glucose transporter 1/SLC2A1 (GLUT1, Millipore, 07-1401, dilution 1/1000), PECAM1 / CD31 (Dako, M0823, dilution 1/10), ETS transcription factor (ERG, Roche, 790-4576, prediluted) and vimentin (VIM, Dako, M7020, dilution 1/250). For histological analyses, 5 random images of tumor areas of stained slides were taken at 40x magnification. Stained areas were isolated by color deconvolution and thresholding. Quantification of staining intensity was measured on thresholded areas, converted onto a scale from 0 (white, no staining) to 100 (black, completely stained) and compared between the sample taken before ITPP treatment and the one after. For calculation of percentage area stained, thresholded areas were compared to the complete area of the picture. ImageJ (V1.53c, National Institutes of Health, USA) was used for all histological analyses.
(§2) This analyses must be regarded with caution due to n=1!

A further data set has as its system HIF1α. The description is as above. It is filed as in vivo, human. On the procedure: as §1, §2
A further data set concerns HIF2α. The data set is described as above. The data set is classed as in vivo, human. The following applies: patient nr. 21, CRLM, only weak staining. The protocol: as §1, §2
For the next data set, the system named is PECAM1/CD31. The description is as above. It is filed as in vivo, human. The following applies: CD31 stain, group After (ITPP), one value per image field; threshold 0-90. On the procedure: as §1, §2
The subject of a further data set is SLC2A1/GLUT1. The data set is described as above. The data set is classed as in vivo, human. To be noted: patient nr. 21, CRLM. On the procedure: as §1, §2
For the next data set, the system named is Vimentin. Described as above. The data set is classed as in vivo, human. On the procedure: as §1, §2
Data set [1] deals with carbonic anhydrase 9 (CA9). The data set is described as above. It is filed as in vivo, human. On the procedure: as §1, §2
The subject of data set [2] is colorectal liver metastasis. The following applies: cited from earlier work; for Survival: ref 16 (supplementary references).

Values joined by “and” are separate entries in the source; they are usually repeats but may differ in a detail not shown here. Equal entries are not always repeated. Where two headings read alike, the source gives them in different places.

Regarding `O=P1(O)OC2C3OP(=O)(O)OP(=O)(O)OC3C3OP(=O)(O)OP(=O)(O)OC3C2OP(=O)(O)O1` (stereo not drawn) [ITPP, Myo-inositol trispyrophosphate], the “%Area” value was 0.53% and 0.557% and 0.323% and 0.603% and 0.393% in the data set on ERG (Erg stain, group After (ITPP), one value per image field, threshold 0-130); 60.518% and 62.226% and 71.026% and 45.098% and 63.507% in the data set with HIF1α (HIF1a stain, group After (ITPP), one value per image field, threshold 0-220); 1.371% and 1.754% and 0.512% and 2.094% and 0.52% in the data set with PECAM1/CD31; 29.786% and 30.117% and 24.166% and 28.151% and 26.502% with Vimentin (Vim stain, group After (ITPP), one value per image field, threshold 0-160); 0.006% and 0.014% and 0.943% and 0.008% and 0.048% in data set [1] (CAIX stain, group After (ITPP), one value per image field, threshold 0-130). In addition, in the data set with ERG (patient nr. 21, CRLM), the “ERG after ITPP treatment” value is recorded as “more abundant”. For the same compound, the “HIF1α staining, before vs after ITPP treatment” value in the data set on HIF1α (patient nr. 21, CRLM, only weak staining) is “no difference”. Also, the “HIF2α staining, before vs after ITPP treatment” value in the data set on HIF2α was “no difference”. For the same compound, in the data set on SLC2A1/GLUT1, the “Expression of SLC2A1/GLUT1 in cancer cells after ITPP treatment” value is “downregulated”. The “Vimentin after ITPP administration” value in the data set on Vimentin (patient nr. 21, CRLM) is recorded as “decreased”. In data set [1] (patient nr. 21, CRLM), the “Expression of carbonic anhydrase 9 (CA9) after ITPP treatment” value is on record as “decreased”. For the same compound, the Survival in data set [2] (FOLFOX combined with ITPP, 10 days, five times each on alternate days) is given as 153 days; in data set [2] (FOLFOX given following ITPP treatment) it was 152 days; in data set [2] (ITPP alone), 65.5 days. The Extension of survival in data set [2] (syngeneic mouse model of colorectal liver metastasis, 17 (supplementary references)) is reported as 60%.
